Experimental data reported in PubChem BioAssay AID1919008 (Molecular Pharmacology Branch, DTP, NCI, 2023).
Where “and” joins values, the source holds several entries; their conditions need not be identical. Identical values can stand only once.

Test system: DMS-114 complex spheroids with HUVEC/MSC, growth % test/control
Experiment: Anticancer human tumor DMS-114 cell line growth inhibition [AhR];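 note: spheroids exposed to agents for 7 days before readout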;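 for viability, T/C: 100% = DMSO vehicle control wells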
Settings: for IC50: curve of first compound; for viability, T/C: stronger effect = lower value
Method in brief: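 Spheroids combined tumor cells with HUVEC endothelial cells and human MSCs as stroma. AhR antagonists were paired with standard or investigational drugs, each dosed in half-log steps down from near clinical Cmax, or from 10 microM where Cmax was unknown.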

O=C(C=Cn1cnc(-c2cc(C(F)(F)F)cc(C(F)(F)F)c2)n1)NNc1cnccn1 + CC(CO)NC(=O)c1cc(-c2ccc(Cl)cc2)nn(-c2cnn(C)c2)c1=O
IC50 (second compound 0.1 µM): 183 nM | IC50 (second compound 0.316 µM): 156 nM | IC50 (second compound 1 µM): 169 nM | IC50 (second compound 3.16 µM): 180 nM | IC50 (second compound 10 µM): 209 nM | viability, T/C (second compound 0.1 µM, first compound 0.00949 µM): 103% | viability, T/C (second compound 0.1 µM, first compound 0.03 µM): 99.2% | viability, T/C (second compound 0.1 µM, first compound 0.0949 µM): 63.3% | viability, T/C (second compound 0.1 µM, first compound 0.3 µM): 38.2% | viability, T/C (second compound 0.1 µM, first compound 0.949 µM): 18.7% | viability, T/C (second compound 0.1 µM, first compound 3 µM): 7.72% | viability, T/C (second compound 0.316 µM, first compound 0.00949 µM): 97.8% | viability, T/C (second compound 0.316 µM, first compound 0.03 µM): 93.9% | viability, T/C (second compound 0.316 µM, first compound 0.0949 µM): 57.2% | viability, T/C (second compound 0.316 µM, first compound 0.3 µM): 36.1% | viability, T/C (second compound 0.316 µM, first compound 0.949 µM): 16.8% | viability, T/C (second compound 0.316 µM, first compound 3 µM): 7.29% | viability, T/C (second compound 1 µM, first compound 0.00949 µM): 85.8% | viability, T/C (second compound 1 µM, first compound 0.03 µM): 97.2% | viability, T/C (second compound 1 µM, first compound 0.0949 µM): 59.4% | viability, T/C (second compound 1 µM, first compound 0.3 µM): 37% | viability, T/C (second compound 1 µM, first compound 0.949 µM): 16.4% | viability, T/C (second compound 1 µM, first compound 3 µM): 8.32% | viability, T/C (second compound 3.16 µM, first compound 0.00949 µM): 97.1% | viability, T/C (second compound 3.16 µM, first compound 0.03 µM): 121% | viability, T/C (second compound 3.16 µM, first compound 0.0949 µM): 54.1% | viability, T/C (second compound 3.16 µM, first compound 0.3 µM): 43.9% | viability, T/C (second compound 3.16 µM, first compound 0.949 µM): 17.7% | viability, T/C (second compound 3.16 µM, first compound 3 µM): 6.66% | viability, T/C (second compound 10 µM, first compound 0.00949 µM): 95.2% | viability, T/C (second compound 10 µM, first compound 0.03 µM): 96.4% | viability, T/C (second compound 10 µM, first compound 0.0949 µM): 64.2% | viability, T/C (second compound 10 µM, first compound 0.3 µM): 44% | viability, T/C (second compound 10 µM, first compound 0.949 µM): 18.4% | viability, T/C (second compound 10 µM, first compound 3 µM): 9.22%

COc1cc(C2c3cc4c(cc3C(OC3OC5COC(C)OC5C(O)C3O)C3COC(=O)C23)OCO4)cc(OC)c1O (stereo unspecified) + CC(CO)NC(=O)c1cc(-c2ccc(Cl)cc2)nn(-c2cnn(C)c2)c1=O
IC50 (second compound 0.1 µM): 572 nM | IC50 (second compound 0.316 µM): 469 nM | IC50 (second compound 1 µM): 448 nM | IC50 (second compound 3.16 µM): 431 nM | IC50 (second compound 10 µM): 489 nM | viability, T/C (second compound 0.1 µM, first compound 0.0316 µM): 87.4% | viability, T/C (second compound 0.1 µM, first compound 0.1 µM): 88.4% | viability, T/C (second compound 0.1 µM, first compound 0.316 µM): 64.3% | viability, T/C (second compound 0.1 µM, first compound 1 µM): 34.2% | viability, T/C (second compound 0.1 µM, first compound 3.16 µM): 25.8% | viability, T/C (second compound 0.1 µM, first compound 10 µM): 13.2% | viability, T/C (second compound 0.316 µM, first compound 0.0316 µM): 95.9% | viability, T/C (second compound 0.316 µM, first compound 0.1 µM): 88.3% | viability, T/C (second compound 0.316 µM, first compound 0.316 µM): 55% | viability, T/C (second compound 0.316 µM, first compound 1 µM): 34.3% | viability, T/C (second compound 0.316 µM, first compound 3.16 µM): 25.8% | viability, T/C (second compound 0.316 µM, first compound 10 µM): 13.4% | viability, T/C (second compound 1 µM, first compound 0.0316 µM): 97.7% | viability, T/C (second compound 1 µM, first compound 0.1 µM): 89.9% | viability, T/C (second compound 1 µM, first compound 0.316 µM): 56.3% | viability, T/C (second compound 1 µM, first compound 1 µM): 31.4% | viability, T/C (second compound 1 µM, first compound 3.16 µM): 22.7% | viability, T/C (second compound 1 µM, first compound 10 µM): 14% | viability, T/C (second compound 3.16 µM, first compound 0.0316 µM): 90.4% | viability, T/C (second compound 3.16 µM, first compound 0.1 µM): 94.8% | viability, T/C (second compound 3.16 µM, first compound 0.316 µM): 52.8% | viability, T/C (second compound 3.16 µM, first compound 1 µM): 32.9% | viability, T/C (second compound 3.16 µM, first compound 3.16 µM): 23.6% | viability, T/C (second compound 3.16 µM, first compound 10 µM): 12% | viability, T/C (second compound 10 µM, first compound 0.0316 µM): 94.4% | viability, T/C (second compound 10 µM, first compound 0.1 µM): 97.7% | viability, T/C (second compound 10 µM, first compound 0.316 µM): 58% | viability, T/C (second compound 10 µM, first compound 1 µM): 32.9% | viability, T/C (second compound 10 µM, first compound 3.16 µM): 22.2% | viability, T/C (second compound 10 µM, first compound 10 µM): 12.7%

COc1cc(Nc2ncc3c(n2)-c2ccc(Cl)cc2C(c2c(F)cccc2OC)=NC3)ccc1C(=O)O
viability, T/C (compound 0.0316 µM): 24.8% and 65.8% and 25.6% | viability, T/C (compound 0.1 µM): 24.5% and 56.9% and 27.2% | viability, T/C (compound 0.316 µM): 40% and 108% and 56% | viability, T/C (compound 1 µM): 65.1% and 114% and 79% | viability, T/C (compound 3.16 µM): 64% and 116% and 85.6% | viability, T/C (compound 10 µM): 74.5% and 104% and 61.2%
